Measured values from PubChem BioAssay (NCI).
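Tested at 5 concentrations; 48 h exposure; 96-well plates; endpoints linearly interpolated, else capped at highest concentration. GI50 marks 50% less growth. TGI is the concentration that stops growth completely.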

Experiments:
Assay in all cases: DTP human tumour cell line panel, 48 h
OVCAR-8 ovarian = system: OVCAR-8 ovarian
HOP-62 NSCLC = system: HOP-62 NSCLC
COLO 205 colon = system: COLO 205 colon
HCT-15 colon = system: HCT-15 colon
NCI-H23 lung = system: NCI-H23 lung
A549 NSCLC = system: A549 NSCLC
SNB-19 CNS = system: SNB-19 CNS
ACHN renal = system: ACHN renal
EKVX NSCLC = system: EKVX NSCLC
SK-MEL-2 melanoma = system: SK-MEL-2 melanoma
MALME-3M melanoma = system: MALME-3M melanoma
KM12 colon = system: KM12 colon
SNB-75 CNS = system: SNB-75 CNS
IGROV1 ovarian = system: IGROV1 ovarian
K-562 leukemia = system: K-562 leukemia
MCF7 breast = system: MCF7 breast
DU-145 prostate = system: DU-145 prostate
SW-620 colon = system: SW-620 colon
OVCAR-3 ovarian = system: OVCAR-3 ovarian
OVCAR-5 ovarian = system: OVCAR-5 ovarian
HT29 colon = system: HT29 colon
NCI-H522 lung = system: NCI-H522 lung
M14 melanoma = system: M14 melanoma
SF-539 CNS = system: SF-539 CNS
U251 CNS = system: U251 CNS
786-0 renal = system: 786-0 renal
MOLT-4 leukemia = system: MOLT-4 leukemia
CAKI-1 renal = system: CAKI-1 renal
NCI/ADR-RES ovarian = system: NCI/ADR-RES ovarian
SK-MEL-5 melanoma = system: SK-MEL-5 melanoma
SN12C renal = system: SN12C renal
UO-31 renal = system: UO-31 renal
SF-268 CNS = system: SF-268 CNS
SF-295 CNS = system: SF-295 CNS
SK-MEL-28 melanoma = system: SK-MEL-28 melanoma
MDA-MB-231 breast = system: MDA-MB-231 breast
SK-OV-3 ovarian = system: SK-OV-3 ovarian
LOX IMVI melanoma = system: LOX IMVI melanoma
NCI-H460 lung = system: NCI-H460 lung
RXF 393 renal = system: RXF 393 renal
HCC-2998 colon = system: HCC-2998 colon
BT-549 breast = system: BT-549 breast
T-47D breast = system: T-47D breast
UACC-257 melanoma = system: UACC-257 melanoma
NCI-H226 lung = system: NCI-H226 lung
SR leukemia = system: SR leukemia
HS 578T breast = system: HS 578T breast
PC-3 prostate = system: PC-3 prostate
OVCAR-4 ovarian = system: OVCAR-4 ovarian
RPMI-8226 leukemia = system: RPMI-8226 leukemia
HL-60(TB) leukemia = system: HL-60(TB) leukemia
TK-10 renal = system: TK-10 renal
UACC-62 melanoma = system: UACC-62 melanoma
MDA-MB-435 = system: MDA-MB-435
HCT-116 colon = system: HCT-116 colon

Question: Which GI50 (OVCAR-8 ovarian) does the source give for Cc1cc(S(N)(=O)=O)c(S/C(CC(C)C)=N\Nc2ccc([N+](=O)[O-])cc2)cc1Cl here?
Answer: 16.9 µM

Question: And the TGI (OVCAR-8 ovarian)?
Answer: 52.8 µM

Question: And the GI50 (HOP-62 NSCLC)?
Answer: 13.5 µM

Question: What about the TGI (HOP-62 NSCLC) of the same molecule?
Answer: 26.4 µM

Question: And the GI50 (COLO 205 colon)?
Answer: 6.46 µM

Question: What about the TGI (COLO 205 colon) of the same molecule?
Answer: 20.9 µM

Question: What about the GI50 (HCT-15 colon) of the same molecule?
Answer: 5.22 µM

Question: What about the TGI (HCT-15 colon) of the same molecule?
Answer: 31.2 µM

Question: What about the GI50 (NCI-H23 lung) of the same molecule?
Answer: 3.74 µM

Question: What about the TGI (NCI-H23 lung) of the same molecule?
Answer: 12.6 µM

Question: What about the GI50 (A549 NSCLC) of the same molecule?
Answer: 9.46 µM

Question: And the TGI (A549 NSCLC)?
Answer: 27.2 µM

Question: And the GI50 (SNB-19 CNS)?
Answer: 13.2 µM

Question: What about the TGI (SNB-19 CNS) of the same molecule?
Answer: 27.3 µM

Question: And the GI50 (ACHN renal)?
Answer: 5.44 µM

Question: What about the TGI (ACHN renal) of the same molecule?
Answer: 17.4 µM

Question: And the GI50 (EKVX NSCLC)?
Answer: 16.6 µM

Question: What about the TGI (EKVX NSCLC) of the same molecule?
Answer: 31.3 µM

Question: What about the GI50 (SK-MEL-2 melanoma) of the same molecule?
Answer: 8.22 µM

Question: And the TGI (SK-MEL-2 melanoma)?
Answer: 34.6 µM

Question: What about the GI50 (MALME-3M melanoma) of the same molecule?
Answer: 12.5 µM

Question: What about the TGI (MALME-3M melanoma) of the same molecule?
Answer: 25 µM

Question: And the GI50 (KM12 colon)?
Answer: 3.32 µM

Question: What about the TGI (KM12 colon) of the same molecule?
Answer: 13.2 µM

Question: And the GI50 (SNB-75 CNS)?
Answer: 4.05 µM

Question: And the TGI (SNB-75 CNS)?
Answer: 18.7 µM

Question: What about the GI50 (IGROV1 ovarian) of the same molecule?
Answer: 6.77 µM

Question: What about the TGI (IGROV1 ovarian) of the same molecule?
Answer: 21.2 µM

Question: What about the GI50 (K-562 leukemia) of the same molecule?
Answer: 5.82 µM

Question: What about the TGI (K-562 leukemia) of the same molecule?
Answer: 97 µM

Question: What about the GI50 (MCF7 breast) of the same molecule?
Answer: 2360 nM

Question: And the TGI (MCF7 breast)?
Answer: 7.27 µM

Question: And the GI50 (DU-145 prostate)?
Answer: 14.4 µM

Question: What about the TGI (DU-145 prostate) of the same molecule?
Answer: 28 µM

Question: What about the GI50 (SW-620 colon) of the same molecule?
Answer: 8.82 µM

Question: And the TGI (SW-620 colon)?
Answer: 29.9 µM

Question: And the GI50 (OVCAR-3 ovarian)?
Answer: 3.19 µM

Question: And the TGI (OVCAR-3 ovarian)?
Answer: 7.07 µM

Question: And the GI50 (OVCAR-5 ovarian)?
Answer: 14.8 µM

Question: What about the TGI (OVCAR-5 ovarian) of the same molecule?
Answer: 27.9 µM

Question: And the GI50 (HT29 colon)?
Answer: 3.88 µM

Question: And the TGI (HT29 colon)?
Answer: 15.3 µM

Question: And the GI50 (NCI-H522 lung)?
Answer: 18.8 µM

Question: And the TGI (NCI-H522 lung)?
Answer: 72.2 µM

Question: What about the GI50 (M14 melanoma) of the same molecule?
Answer: 4.99 µM

Question: What about the TGI (M14 melanoma) of the same molecule?
Answer: 16.5 µM

Question: And the GI50 (SF-539 CNS)?
Answer: 16.2 µM

Question: What about the TGI (SF-539 CNS) of the same molecule?
Answer: 29.7 µM

Question: And the GI50 (U251 CNS)?
Answer: 10.6 µM

Question: What about the TGI (U251 CNS) of the same molecule?
Answer: 25.5 µM

Question: And the GI50 (786-0 renal)?
Answer: 7.15 µM

Question: And the TGI (786-0 renal)?
Answer: 19.8 µM

Question: What about the GI50 (MOLT-4 leukemia) of the same molecule?
Answer: 4.57 µM

Question: What about the TGI (MOLT-4 leukemia) of the same molecule?
Answer: > 100 µM

Question: And the GI50 (CAKI-1 renal)?
Answer: 2240 nM

Question: What about the TGI (CAKI-1 renal) of the same molecule?
Answer: 6.85 µM

Question: And the GI50 (NCI/ADR-RES ovarian)?
Answer: 5.9 µM

Question: What about the TGI (NCI/ADR-RES ovarian) of the same molecule?
Answer: 19.2 µM

Question: And the GI50 (SK-MEL-5 melanoma)?
Answer: 11 µM

Question: What about the TGI (SK-MEL-5 melanoma) of the same molecule?
Answer: 23.2 µM

Question: And the GI50 (SN12C renal)?
Answer: 2760 nM

Question: And the TGI (SN12C renal)?
Answer: 9.88 µM

Question: And the GI50 (UO-31 renal)?
Answer: 11.1 µM

Question: What about the TGI (UO-31 renal) of the same molecule?
Answer: 23.6 µM

Question: What about the GI50 (SF-268 CNS) of the same molecule?
Answer: 7.21 µM

Question: And the TGI (SF-268 CNS)?
Answer: 23.1 µM

Question: And the GI50 (SF-295 CNS)?
Answer: 2310 nM

Question: And the TGI (SF-295 CNS)?
Answer: 5.7 µM

Question: And the GI50 (SK-MEL-28 melanoma)?
Answer: 13.9 µM

Question: What about the TGI (SK-MEL-28 melanoma) of the same molecule?
Answer: 27.8 µM

Question: What about the GI50 (MDA-MB-231 breast) of the same molecule?
Answer: 2770 nM

Question: What about the TGI (MDA-MB-231 breast) of the same molecule?
Answer: 9.52 µM

Question: What about the GI50 (SK-OV-3 ovarian) of the same molecule?
Answer: 13.7 µM

Question: What about the TGI (SK-OV-3 ovarian) of the same molecule?
Answer: 28.2 µM

Question: And the GI50 (LOX IMVI melanoma)?
Answer: 5.81 µM

Question: What about the TGI (LOX IMVI melanoma) of the same molecule?
Answer: 29.2 µM

Question: And the GI50 (NCI-H460 lung)?
Answer: 4.09 µM

Question: And the TGI (NCI-H460 lung)?
Answer: 17.8 µM

Question: And the GI50 (RXF 393 renal)?
Answer: 4.13 µM

Question: And the TGI (RXF 393 renal)?
Answer: 19 µM

Question: And the GI50 (HCC-2998 colon)?
Answer: 2460 nM

Question: What about the TGI (HCC-2998 colon) of the same molecule?
Answer: 6.27 µM

Question: What about the GI50 (BT-549 breast) of the same molecule?
Answer: 17.7 µM

Question: What about the TGI (BT-549 breast) of the same molecule?
Answer: 31.7 µM

Question: And the GI50 (T-47D breast)?
Answer: 3.1 µM

Question: And the TGI (T-47D breast)?
Answer: 8.33 µM

Question: What about the GI50 (UACC-257 melanoma) of the same molecule?
Answer: 16.4 µM

Question: What about the TGI (UACC-257 melanoma) of the same molecule?
Answer: 33.8 µM

Question: And the GI50 (NCI-H226 lung)?
Answer: 2820 nM

Question: What about the TGI (NCI-H226 lung) of the same molecule?
Answer: 7.77 µM

Question: And the GI50 (SR leukemia)?
Answer: 1840 nM

Question: And the TGI (SR leukemia)?
Answer: 6.26 µM

Question: What about the GI50 (HS 578T breast) of the same molecule?
Answer: 11.9 µM

Question: And the TGI (HS 578T breast)?
Answer: 30.1 µM

Question: What about the GI50 (PC-3 prostate) of the same molecule?
Answer: 3.16 µM

Question: What about the TGI (PC-3 prostate) of the same molecule?
Answer: 11.9 µM

Question: What about the GI50 (OVCAR-4 ovarian) of the same molecule?
Answer: 5.01 µM

Question: And the TGI (OVCAR-4 ovarian)?
Answer: 20.5 µM

Question: And the GI50 (RPMI-8226 leukemia)?
Answer: 2580 nM

Question: And the TGI (RPMI-8226 leukemia)?
Answer: 7.28 µM

Question: What about the GI50 (HL-60(TB) leukemia) of the same molecule?
Answer: 7.07 µM

Question: And the TGI (HL-60(TB) leukemia)?
Answer: > 100 µM

Question: What about the GI50 (TK-10 renal) of the same molecule?
Answer: 2930 nM

Question: And the TGI (TK-10 renal)?
Answer: 8.33 µM

Question: And the GI50 (UACC-62 melanoma)?
Answer: 3.13 µM

Question: What about the TGI (UACC-62 melanoma) of the same molecule?
Answer: 8.89 µM

Question: What about the GI50 (MDA-MB-435) of the same molecule?
Answer: 2920 nM

Question: And the TGI (MDA-MB-435)?
Answer: 9.42 µM

Question: And the GI50 (HCT-116 colon)?
Answer: 3.53 µM

Question: What about the TGI (HCT-116 colon) of the same molecule?
Answer: 13 µM
